US20230150978A1, “QUINAZOLINONE DERIVATIVES AND USES THEREOF FOR TREATING A CANCER” (ENYO PHARMA, priority 2020, published 2023)
Read-outs that look alike come from different tables or passages of the source.

How the values were obtained:
Calreticulin = Calreticulin release (ER to plasma membrane translocation) screen, Nano-Glo HiBiT extracellular detection; format: cell-based; details: extracellular luminescence, read-out: CalR EC50
Protocol: (§1) Construction of pBiT3.1-Calreticulin Plasmid Calreticulin derived from pCMV6-AC plasmid (ref. SC320287, Origene) was amplified by PCR using the following set of primers: Seq ID No 3: forward, 5′-[…]-3′; Seq ID No 4: reverse, 5′-[…]-3′. The PCR fragment was subsequently digested by EcoRI and XhoI (R3101S and R0146S respectively, New England Biolabs) and inserted between the EcoRI and XhoI sites in the plasmid pBiT3.1-C(ref. N237A, Promega). The resulting plasmid (pBiT3.1-Calreticulin) was grown in NEB10-beta competent E. coli (ref. C3019I, New England Biolabs) and purified using the NucleoBond Xtra Midi Kit (ref. 740410, Macherey-Nagel).
Construction of Calreticulin Reporter Cell Line
(§2) pBiT3.1-Calreticulin was transfected in MDA-MB-231 cells (ref. ATCC HTB-2) using Lipofectamine 2000 reagent (ref. 11668, Invitrogen). Transfected cells were selected for blasticidin resistance (15 μg/ml, ref. Al 113903 Gibco) in medium containing DMEM 1× (ref. 1995065, Gibco) with 1% penicillin and streptomycin, and 10% fetal bovine serum.
Screen for Calreticulin-ER to Plasma Membrane Translocating Drugs
(§3) MDA-MB-231 cells stably expressing Calreticulin-HiBiT (10^4 cells/well) were seeded into white 96-well plates (ref.3917, Corning) and allowed to recover for 24h. […] Mitoxantrone dihydrochloride (ref. M6545, Sigma-Aldrich) was used as a positive control. Extracellular translocation of Calreticulin was measured using the Nano-Glo HiBiT extracellular detection system (ref. N2422, Promega). Nano-Glo HiBiT Extracellular Reagent was prepared in advance, added to the well and incubated 10 min.
Luminescence of the extracellular Calreticulin-HiBiT was quantified using the Spark 20M spectrofluorimeter (TECAN).

HMGB1 = HMGB1 release screen, Nano-Glo HiBiT extracellular detection; format: cell-based; details: extracellular luminescence
Protocol: Construction of pBiT3.1-HMGB1 Plasmid
as §1, with “HMGB1” for “Construction of pBiT3.1-Calreticulin Plasmid Calreticulin”, “pCMV6-AC-GFP” for “pCMV6-AC”, “RG205918,” for “SC320287,”, “1:” for “3:”, “2:” for “4:”, “(pBiT3.1-HMGB1)” for “(pBiT3.1-Calreticulin)”
Construction of HMGB1 Reporter Cell Line
as §2, with “pBiT3.1-HMGB1” for “pBiT3.1-Calreticulin”
Screen for HMGB1-Releasing Drugs
as §3, with “HMGB1-HiBiT” for “Calreticulin-HiBiT”, “HMGB1” for “Calreticulin”, “min. Luminescence of the extracellular HMGB1-HiBiT was quantified using the Spark 20M spectrofluorimeter (TECAN)” for “min.”

[1] = Homo sapiens, MDA-MB-231, MDA-MB-231 cells stably expressing Calreticulin-HiBiT
[2] = Homo sapiens, MDA-MB-231, MDA-MB-231 cells stably expressing HMGB1-HiBiT
[3] = MDA-MB-231 cells stably expressing Calreticulin-HiBiT
[4] = MDA-MB-231 cells stably expressing HMGB1-HiBiT

| EC50 (Calreticulin; [1]) [µM] | EC50 (HMGB1; [2]) [µM] | EC50 (Calreticulin; [3]) [µM] | EC50 (HMGB1; [4]) [µM] | Structure (SMILES) |
| --- | --- | --- | --- | --- |
| 5.96 | 6.06 |  |  | O=c1[nH]c(CN2CCc3cc(Br)ccc32)nc2ccc(Cl)cc12 [Ex. #48, 2-[(5-bromoindolin-1-yl)methyl]-6-chloro-3H-quinazolin-4-one] |
| 10.5 | 13.3 |  |  | CN1CCN(Cc2nc3ccc(Cl)cc3c(=O)[nH]2)c2ccccc21 [Ex. #128, 6-chloro-2-[(4-methyl-2,3-dihydroquinoxalin-1-yl)methyl]-3H-quinazolin-4-one] |
| 6.96 | 13.4 |  |  | Cc1ccc2c(c1)N(Cc1nc3ccc(Cl)cc3c(=O)[nH]1)CCC2 [Ex. #127, 6-chloro-2-[(7-methyl-3,4-dihydro-2H-quinolin-1-yl)methyl]-3H-quinazolin-4-one] |
| 2.16 | 3.46 |  |  | O=c1[nH]c(CN2CCc3ccccc32)nc2ccc(N3CCC(CO)C3)cc12 (stereo not drawn) [Ex. #104, 6-[3-(hydroxymethyl)pyrrolidin-1-yl]-2-(indolin-1-ylmethyl)-3H-quinazolin-4-one] |
| 0.292 | 0.594 |  |  | COc1cc2c(=O)[nH]c(CN3CCc4ccccc43)nc2cc1F [Ex. #76, 7-fluoro-2-(indolin-1-ylmethyl)-6-methoxy-3H-quinazolin-4-one] |
| 0.87 | 9.36 |  |  | Cc1ccc2c(c1)CN(Cc1nc3ccc(Cl)cc3c(=O)[nH]1)CC2 [Ex. #60, 6-chloro-2-[(7-methyl-3,4-dihydro-1H-isoquinolin-2-yl)methyl]-3H-quinazolin-4-one] |
| 14.2 | 11.9 |  |  | O=c1[nH]c(CN2CCOc3ccccc32)nc2ccc(Cl)cc12 [Ex. #57, 6-chloro-2-(2,3-dihydro-1,4-benzoxazin-4-ylmethyl)-3H-quinazolin-4-one] |
| 0.4 | 0.6 |  |  | COc1ccc2nc(CN3CC(C)(C)c4ccccc43)[nH]c(=O)c2c1 [Ex. #2, 2-[(3,3-dimethylindolin-1-yl)methyl]-6-methoxy-3H-quinazolin-4-one] |
| 3.06 | 5.76 |  |  | COc1cc(OC)c2nc(CN3CC(C)(C)c4ccccc43)[nH]c(=O)c2c1 [Ex. #94, 2-[(3,3-dimethylindolin-1-yl)methyl]-6,8-dimethoxy-3H-quinazolin-4-one] |
| 2.16 | 13.5 |  |  | COc1ccc2nc(CN3CCc4c(F)cccc4C3)[nH]c(=O)c2c1 [Ex. #124, 2-[(5-fluoro-3,4-dihydro-1H-isoquinolin-2-yl)methyl]-6-methoxy-3H-quinazolin-4-one] |
| 10.4 | 14.4 |  |  | COC1CCN(c2ccc3nc(CN4CCc5ccccc54)[nH]c(=O)c3c2)CC1 [Ex. #132, 2-(indolin-1-ylmethyl)-6-(4-methoxy-1-piperidyl)-3H-quinazolin-4-one] |
|  |  | 0.499 | 0.721 | CC1CN(Cc2nc3ccc(Cl)cc3c(=O)[nH]2)c2ccccc21 (single isomer, unassigned) [Ex. #38, 6-chloro-2-[(3-methylindolin-1-yl)methyl]-3H-quinazolin-4-one] |
| 0.23 | 0.25 |  |  | O=c1[nH]c(CN2CCc3ccccc32)nc2ccc(N3CCC3)cc12 [Ex. #100, 6-(azetidin-1-yl)-2-(indolin-1-ylmethyl)-3H-quinazolin-4-one] |
| 7.36 | 10.2 |  |  | COc1ccc2nc(CN3CCc4cccc(OC)c4C3)[nH]c(=O)c2c1 [Ex. #19, 6-methoxy-2-[(8-methoxy-3,4-dihydro-1H-isoquinolin-2-yl)methyl]-3H-quinazolin-4-one] |
| 2.71 | 5.51 |  |  | Cc1ccc2c(c1)CCN2Cc1nc2ccc(Cl)cc2c(=O)[nH]1 [Ex. #46, 6-chloro-2-[(5-methylindolin-1-yl)methyl]-3H-quinazolin-4-one] |
| 0.45 | 3.86 |  |  | COc1ccc(OC)c2c1CN(Cc1nc3ccc(Cl)cc3c(=O)[nH]1)CC2O (stereo not drawn) [Ex. #61, 6-chloro-2-[(4-hydroxy-5,8-dimethoxy-3,4-dihydro-1H-isoquinolin-2-yl)methyl]-3H-quinazolin-4-one] |
| 0.231 | 2.72 |  |  | COc1ccc2nc(CN3CCc4ccccc43)[nH]c(=O)c2c1 [Ex. #1, 2-(indolin-1-ylmethyl)-6-methoxy-3H-quinazolin-4-one] |
| 12.1 | 14.5 |  |  | COc1ccc2nc(CN3CC(CCN)c4ccccc43)[nH]c(=O)c2c1 (stereo not drawn) [Ex. #131, 2-[1-[(6-methoxy-4-oxo-3H-quinazolin-2-yl)methyl]indolin-3-yl]ethylammonium chloride] |
| 8.26 | 6.26 |  |  | O=c1[nH]c(CN2CCc3ccccc32)nc2cc(Cl)ccc12 [Ex. #89, 7-chloro-2-(indolin-1-ylmethyl)-3H-quinazolin-4-one] |
| 3.96 | 11.2 |  |  | COc1ccc2nc(CN3CCc4c(cccc4NS(C)(=O)=O)C3)[nH]c(=O)c2c1 [Ex. #21, N-[2-[(6-methoxy-4-oxo-3H-quinazolin-2-yl)methyl]-3,4-dihydro-1H-isoquinolin-5-yl]methanesulfonamide] |
| 10 | 10.2 |  |  | COC1CN(c2ccc3nc(CN4CCc5ccccc54)[nH]c(=O)c3c2)C1 [Ex. #101, 2-(indolin-1-ylmethyl)-6-(3-methoxyazetidin-1-yl)-3H-quinazolin-4-one] |
| 10.7 | 13.3 |  |  | COc1ccc2nc(CN3CC(CCO)c4ccccc43)[nH]c(=O)c2c1 (stereo not drawn) [Ex. #129, 2-[[3-(2-hydroxyethyl)indolin-1-yl]methyl]-6-methoxy-3H-quinazolin-4-one] |
| 4.66 | 11.6 |  |  | O=c1[nH]c(CN2Cc3ccccc3C2)nc2ccc(Cl)cc12 [Ex. #50, 6-chloro-2-(isoindolin-2-ylmethyl)-3H-quinazolin-4-one] |
| 3.61 | 13.1 |  |  | COc1ccc2nc(CN3Cc4ccccc4C(O)C3)[nH]c(=O)c2c1 (stereo not drawn) [Ex. #123, 2-[(4-hydroxy-3,4-dihydro-1H-isoquinolin-2-yl)methyl]-6-methoxy-3H-quinazolin-4-one] |
| 9.16 | 11.7 |  |  | O=c1[nH]c(CN2CCc3ccccc32)nc2ccc(N3CCC(O)C3)cc12 (stereo not drawn) [Ex. #105, 6-(3-hydroxypyrrolidin-1-yl)-2-(indolin-1-ylmethyl)-3H-quinazolin-4-one] |
| 1.61 | 1.44 |  |  | COc1cc2nc(CN3CCc4ccccc43)[nH]c(=O)c2cc1OC [Ex. #83, 2-(indolin-1-ylmethyl)-6,7-dimethoxy-3H-quinazolin-4-one] |
| 1.21 | 4.66 |  |  | Cc1ccc2c(c1)N(Cc1nc3ccc(Cl)cc3c(=O)[nH]1)CC2 [Ex. #45, 6-chloro-2-[(6-methylindolin-1-yl)methyl]-3H-quinazolin-4-one] |
| 2.18 | 3.98 |  |  | O=c1[nH]c(CN2CCc3cc(F)ccc32)nc2ccc(Cl)cc12 [Ex. #47, 6-chloro-2-[(5-fluoroindolin-1-yl)methyl]-3H-quinazolin-4-one] |
| 0.0975 | 0.15 |  |  | COc1cc2c(=O)[nH]c(CN3CC(C)(C)c4ccccc43)nc2cc1Cl [Ex. #93, 7-chloro-2-[(3,3-dimethylindolin-1-yl)methyl]-6-methoxy-3H-quinazolin-4-one] |
|  |  | 0.172 | 0.207 | COc1ccc2nc(CN3CC(C)c4ccccc43)[nH]c(=O)c2c1 (single isomer, unassigned) [Ex. #4, 6-methoxy-2-[(3-methylindolin-1-yl)methyl]-3H-quinazolin-4-one] |
